Values quoted from earlier work in US20190151293A1, “PHARMACEUTICAL COMPOSITION COMPRISING A NON-PURINE SELECTIVE INHIBITOR OF XANTHINE OXIDASE AND METHOD FOR THE PREPARATION THEREOF” (PHARMATHEN S.A., priority 2016, published 2019).
Like-named read-outs stand apart in the source and are kept apart here.

Key:
[1] = tested on: other enzymes involved in purine or pyrimidine metabolism; settings: at therapeutic concentrations
xanthine oxidase (XO) = xanthine oxidase (XO) (Homo sapiens, UniProt P47989); settings: oxidised and reduced forms of XO
Sequence of xanthine oxidase (XO) (P47989 whole entry): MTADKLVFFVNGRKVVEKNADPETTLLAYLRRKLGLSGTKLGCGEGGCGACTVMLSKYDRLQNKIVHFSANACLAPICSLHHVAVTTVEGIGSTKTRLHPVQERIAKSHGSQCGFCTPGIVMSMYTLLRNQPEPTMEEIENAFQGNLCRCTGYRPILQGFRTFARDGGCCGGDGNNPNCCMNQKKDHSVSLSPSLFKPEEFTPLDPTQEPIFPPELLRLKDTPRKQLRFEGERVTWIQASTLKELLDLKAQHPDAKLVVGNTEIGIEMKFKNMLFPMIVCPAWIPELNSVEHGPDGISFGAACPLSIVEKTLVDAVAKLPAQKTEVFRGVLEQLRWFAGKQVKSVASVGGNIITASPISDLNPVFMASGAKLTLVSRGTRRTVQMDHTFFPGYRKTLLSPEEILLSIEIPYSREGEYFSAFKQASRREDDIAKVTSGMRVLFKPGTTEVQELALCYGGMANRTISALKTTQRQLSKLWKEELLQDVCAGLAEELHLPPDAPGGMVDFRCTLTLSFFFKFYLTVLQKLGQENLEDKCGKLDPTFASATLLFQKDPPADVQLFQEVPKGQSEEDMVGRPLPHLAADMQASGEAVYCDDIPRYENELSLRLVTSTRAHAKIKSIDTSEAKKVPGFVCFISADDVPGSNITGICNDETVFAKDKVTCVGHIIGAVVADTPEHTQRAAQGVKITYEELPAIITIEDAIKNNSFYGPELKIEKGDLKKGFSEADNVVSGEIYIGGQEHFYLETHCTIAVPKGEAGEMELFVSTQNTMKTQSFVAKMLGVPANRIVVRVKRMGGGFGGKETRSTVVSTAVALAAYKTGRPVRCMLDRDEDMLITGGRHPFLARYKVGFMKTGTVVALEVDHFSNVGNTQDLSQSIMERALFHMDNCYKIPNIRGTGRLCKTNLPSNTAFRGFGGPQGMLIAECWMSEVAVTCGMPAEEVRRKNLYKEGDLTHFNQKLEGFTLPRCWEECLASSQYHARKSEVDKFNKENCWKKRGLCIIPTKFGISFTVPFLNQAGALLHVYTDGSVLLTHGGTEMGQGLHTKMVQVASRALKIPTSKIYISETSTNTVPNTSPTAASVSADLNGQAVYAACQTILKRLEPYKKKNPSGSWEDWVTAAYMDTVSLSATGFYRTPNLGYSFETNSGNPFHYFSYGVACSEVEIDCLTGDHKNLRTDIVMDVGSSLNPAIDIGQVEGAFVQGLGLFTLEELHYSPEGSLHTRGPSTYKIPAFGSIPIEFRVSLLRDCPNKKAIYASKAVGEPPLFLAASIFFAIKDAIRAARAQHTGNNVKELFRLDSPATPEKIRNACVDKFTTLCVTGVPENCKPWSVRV

Row | Structure (SMILES) | Solubility of the crystal form, in words | Inhibition of other enzymes involved in purine or pyrimidine metabolism [1] | Inhibition of XO (xanthine oxidase (XO)) | Solubility, dependence on pH (higher in alkalic media) | Solubility (in dimethylformamide) | Solubility (in dimethylsulfoxide) | Solubility (in ethanol) | Solubility (in water)
1 | Cc1nc(-c2ccc(OCC(C)C)c(C#N)c2)sc1C(=O)O [Form C] | good solubility | – | – | – | – | – | – | –
2 | Cc1nc(-c2ccc(OCC(C)C)c(C#N)c2)sc1C(=O)O [Febuxostat, 2-(3-cyano-4-isobutoxyphenyl)-4-methyl-1,3-thiazole-5-carboxylic acid] | – | does not inhibit | inhibit both the oxidised and reduced forms of XO | pH dependent | freely soluble | soluble | sparingly soluble | practically insoluble
